From PubChem BioAssay (NCI)
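Assay format: 96-well plates, 48-hour exposure. GI50 = concentration required for 50% inhibition of growth. TGI marks complete inhibition of growth.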

How the values were obtained:
Assay in all cases: NCI tumour cell line growth inhibition, 48 h
[1] = tested on: TK-10 renal
[2] = tested on: MOLT-4 leukemia
[3] = tested on: SW-620 colon
[4] = tested on: NCI-H23 lung
[5] = tested on: RPMI-8226 leukemia
[6] = tested on: SN12C renal
[7] = tested on: BT-549 breast
[8] = tested on: HCT-116 colon
[9] = tested on: SF-539 CNS
[10] = tested on: OVCAR-8 ovarian
[11] = tested on: HCC-2998 colon
[12] = tested on: A549 NSCLC
[13] = tested on: IGROV1 ovarian
[14] = tested on: HOP-92 NSCLC
[15] = tested on: COLO 205 colon
[16] = tested on: UACC-62 melanoma
[17] = tested on: MALME-3M melanoma
[18] = tested on: UO-31 renal
[19] = tested on: CCRF-CEM leukemia
[20] = tested on: SK-MEL-28 melanoma
[21] = tested on: DU-145 prostate
[22] = tested on: HOP-62 NSCLC
[23] = tested on: HS 578T breast
[24] = tested on: SNB-19 CNS
[25] = tested on: EKVX NSCLC
[26] = tested on: T-47D breast
[27] = tested on: HT29 colon
[28] = tested on: OVCAR-4 ovarian
[29] = tested on: NCI/ADR-RES ovarian
[30] = tested on: 786-0 renal
[31] = tested on: UACC-257 melanoma
[32] = tested on: MDA-MB-231 breast
[33] = tested on: U251 CNS
[34] = tested on: MCF7 breast
[35] = tested on: K-562 leukemia
[36] = tested on: SF-268 CNS
[37] = tested on: SNB-75 CNS
[38] = tested on: SK-MEL-2 melanoma
[39] = tested on: NCI-H522 lung
[40] = tested on: ACHN renal
[41] = tested on: RXF 393 renal
[42] = tested on: M14 melanoma
[43] = tested on: NCI-H460 lung
[44] = tested on: PC-3 prostate
[45] = tested on: MDA-MB-435
[46] = tested on: SF-295 CNS
[47] = tested on: HL-60(TB) leukemia
[48] = tested on: KM12 colon
[49] = tested on: CAKI-1 renal
[50] = tested on: SK-OV-3 ovarian
[51] = tested on: OVCAR-5 ovarian
[52] = tested on: A498 renal
[53] = tested on: SK-MEL-5 melanoma

C=C(C=O)[C@@H]1CC[C@]2(C(=O)O)CC[C@]3(C)C(CC[C@@H]4[C@@](C)(CCC#N)[C@H](C(=C)C=O)CC[C@]43C)[C@@H]12 (stereo partly specified)
GI50 [1]: 3.34 µM
TGI [1]: 13.5 µM
GI50 [2]: 2.71 µM
TGI [2]: 13.7 µM
GI50 [3]: 2.18 µM
TGI [3]: 4.79 µM
GI50 [4]: 2.13 µM
TGI [4]: 4.87 µM
GI50 [5]: 2.63 µM
TGI [5]: 7.26 µM
GI50 [6]: 3.2 µM
TGI [6]: 15.2 µM
GI50 [7]: 1.82 µM
TGI [7]: 3.57 µM
GI50 [8]: 1.8 µM
TGI [8]: 3.46 µM
GI50 [9]: 2.91 µM
TGI [9]: 9.31 µM
GI50 [10]: 2.59 µM
TGI [10]: 7.06 µM
GI50 [11]: 1.93 µM
TGI [11]: 3.81 µM
GI50 [12]: 7.29 µM
TGI [12]: 23.9 µM
GI50 [13]: 2.82 µM
TGI [13]: 8.47 µM
GI50 [14]: 1.37 µM
TGI [14]: 3.55 µM
GI50 [15]: 10.9 µM
TGI [15]: 27.7 µM
GI50 [16]: 2 µM
TGI [16]: 4.88 µM
GI50 [17]: 2.53 µM
TGI [17]: 8.01 µM
GI50 [18]: 2.5 µM
TGI [18]: 8.02 µM
GI50 [19]: 2.78 µM
TGI [19]: 8.75 µM
GI50 [20]: 2.45 µM
TGI [20]: 6.22 µM
GI50 [21]: 3.72 µM
TGI [21]: 12.7 µM
GI50 [22]: 2.08 µM
TGI [22]: 4.67 µM
GI50 [23]: 3.17 µM
TGI [23]: 18.9 µM
GI50 [24]: 3.93 µM
TGI [24]: 18.3 µM
GI50 [25]: 6.64 µM
TGI [25]: 23.9 µM
GI50 [26]: 3.28 µM
TGI [26]: 15.2 µM
GI50 [27]: 1.99 µM
TGI [27]: 4.03 µM
GI50 [28]: 4.22 µM
TGI [28]: 23.5 µM
GI50 [29]: 3.87 µM
TGI [29]: 34.5 µM
GI50 [30]: 1.86 µM
TGI [30]: 3.8 µM
GI50 [31]: 1.8 µM
TGI [31]: 3.88 µM
GI50 [32]: 3.05 µM
TGI [32]: 9.1 µM
GI50 [33]: 1.88 µM
TGI [33]: 3.84 µM
GI50 [34]: 2.9 µM
TGI [34]: 12.1 µM
GI50 [35]: 2.76 µM
TGI [35]: 9.34 µM
GI50 [36]: 6.22 µM
TGI [36]: 26.2 µM
GI50 [37]: 6.07 µM
TGI [37]: 22.3 µM
GI50 [38]: 1.99 µM
TGI [38]: 4.01 µM
GI50 [39]: 2.26 µM
TGI [39]: 6.2 µM
GI50 [40]: 3.26 µM
TGI [40]: 10.5 µM
GI50 [41]: 1.98 µM
TGI [41]: 3.68 µM
GI50 [42]: 1.92 µM
TGI [42]: 4.1 µM
GI50 [43]: 5.56 µM
TGI [43]: 19.8 µM
GI50 [44]: 1.95 µM
TGI [44]: 5.28 µM
GI50 [45]: 3.21 µM
TGI [45]: 11.4 µM
GI50 [46]: 3.07 µM
TGI [46]: 11.6 µM
GI50 [47]: 2.02 µM
TGI [47]: 7.8 µM
GI50 [48]: 3.22 µM
TGI [48]: 10.6 µM
GI50 [49]: 3.38 µM
TGI [49]: 15.4 µM
GI50 [50]: 8.49 µM
TGI [50]: 23.1 µM
GI50 [51]: 2.37 µM
TGI [51]: 6.69 µM
GI50 [52]: 14.2 µM
TGI [52]: 29.3 µM
GI50 [53]: 1.78 µM
TGI [53]: 3.33 µM
